Measurements: US20040191168A1, “Tumor cell killing by cell cycle checkpoint abrogation combined with Inhibition of the classical mitogen activated protein (map) kinase pathway” (priority 2000, published 2004)
Where “and” joins values, the source holds several entries; their conditions need not be identical. Identical values can stand only once.

Legend:
MDA-MB-231 cells = experiment: TUNEL apoptosis in MDA-MB-231 cells; format: cell-based, human; conditions: MDA-MB-231, 24 h; with 150 nM UCN-01; PD184352 10 μM, U0126 5 μM; FIG. 8A
Text: Terminal Uridyl-Nucleotide End Labeling (TUNEL) for apoptosis.

U937 cells = experiment: Loss of mitochondrial membrane potential (reduced DiOC6 uptake, flow cytometry) in U937 cells; format: cell-based, human; conditions: 18 h, PD184352 10 μM, GFX 1 μM, safingol 2 μM, mean ± SD
Procedure: Experimental Format. All of the experiments were performed using logarithmically growing cells (3-5×10^5 cells/ml). Cell suspensions were placed in sterile 25 cm^2 T-flasks (Corning, Corning, N.Y.) and incubated with MEK or PKC inhibitors for 30 min at 37° C. At the end of this period, UCN-01 (or in some cases, caffeine) was added to the suspension, and the flasks were placed in 37° C./5% CO2 incubator at various intervals, generally 18 h. In some studies, the p38 MAP kinase inhibitor SB203580 was added concurrently with MEK inhibitors. After drug treatment, cells were harvested and subjected to further analysis as described below.
Analysis of Mitochondrial Membrane Potential (ΔΨm). Cells 2×10^5 were incubated with 40 nM DiOC6 (Molecular Probes Inc., Eugene, Oreg.) in PBS at 37° C. for 20 min and then analyzed by flow cytometry as described previously (Wang et al., 1999).

colon tumor cells = conditions: mice (Sebolt-Leopold et al., 1999); cited from earlier work
MCF7 cells = conditions: MCF7, 24 h; with 150 nM UCN-01; PD184352 10 μM, U0126 5 μM; FIG. 8B
Procedure: Terminal Uridyl-Nucleotide End Labeling (TUNEL) for apoptosis. […] Cells were isolated 24 h after irradiation by trypsinizationi followed by centrifugation onto glass slides (cytospin). Terminal Uridyl-Nucleotide End Labeling (TUNEL) was performed on these cells as described previously [Wang et al., 1999; Park et al., 1999]. Randomly selected fields of fixed cells (150 cells per field, n=5 per slide) were counted initially using propidium iodide counter stain, followed by examination and counting of TUNEL positive staining cells of the same field under FITC/fluorescence light.

## O=C(NOCC1CC1)c1ccc(F)c(F)c1Nc1ccc(I)cc1Cl [PD184352]
MDA-MB-231 cells
  apoptosis in combination with UCN-01: enhanced apoptosis
U937 cells
  "Low" DiOC6 (% cells): 12.1 ± 0.2% and 14.7 ± 1.0%
Colon tumor cells
  in vivo growth of colon tumor cells: inhibit the in vivo growth of colon tumor cells in mice
MCF7 cells
  apoptosis in combination with UCN-01: enhanced apoptosis
